Source: patent US9023789B2, “Amylin analogs and pharmaceutical compositions thereof” (Novo Nordisk A/S, priority 2012, dated 2015)
Where two headings read alike, the source gives them in different places. Numbered stars: 1 amine (or outer) side, 2 acyl side, 3 side chain; on linkers, the order of the positions; unused ones are H or OH. Bridge positions count the residues as written; N and C are the ends. Peptide text beside a SMILES is read from it. * marks the point of attachment. C20 diacid = O=C(O)CCCCCCCCCCCCCCCCCCC(=O)*; γGlu = O=C(O)[C@H](CCC(=O)[*:2])N[*:1]

Assay: ASSAY (IV) determination of solubility
Assay type: physicochemical
Outline: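 Samples of polypeptide, prepared from a water stock at […] and diluted 1:1 into 100 mM buffers spanning pH 3.0 to 8.0, stood 18 hours at room temperature. Polypeptide concentration was then determined by UPLC following centrifugation.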

[1] = bistrispropane buffer, pH 6.5, read-out: Solubility pH 6.5 Concentration
[2] = bistrispropane buffer, pH 7.5, read-out: Solubility pH 7.5 Concentration
[3] = bistrispropane buffer, pH 6.0, read-out: Solubility pH 6.0 Concentration
[4] = bistrispropane buffer, pH 7.0, read-out: Solubility pH 7.0 Concentration
[5] = bistrispropane buffer, pH 8.0, read-out: Solubility pH 8.0 Concentration
[6] = glycylglycine buffer, pH 3.0, read-out: Solubility pH 3.0 Concentration
[7] = glycylglycine buffer, pH 4.0, read-out: Solubility pH 4.0 Concentration
[8] = glycylglycine buffer, pH 5.0, read-out: Solubility pH 5.0 Concentration

Measured: solubility at 18 h

CC[C@H](C)[C@H](NC(=O)[C@H](C)NC(=O)CNC(=O)[C@H](Cc1ccccc1)NC(=O)[C@H](CC(N)=O)NC(=O)[C@@H]1CCCN1C(=O)[C@H](CO)NC(=O)[C@H](CO)NC(=O)[C@H](Cc1c[nH]cn1)NC(=O)[C@H](CCCNC(=N)N)NC(=O)[C@H](CC(C)C)NC(=O)[C@H](Cc1ccccc1)NC(=O)[C@H](CCC(=O)O)NC(=O)[C@H](C)NC(=O)[C@H](CC(C)C)NC(=O)[C@H](CCCNC(=N)N)NC(=O)[C@H](CCC(N)=O)NC(=O)[C@@H](NC(=O)[C@H](C)NC(=O)[C@@H]1CSSC[C@H](NC(=O)[C@H](CCCCN)NC(=O)CC[C@H](NC(=O)CCCCCCCCCCCCCCCCCCC(=O)O)C(=O)O)C(=O)N[C@@H](CC(N)=O)C(=O)N[C@@H]([C@@H](C)O)C(=O)N[C@@H](C)C(=O)N[C@@H]([C@@H](C)O)C(=O)N1)[C@@H](C)O)C(=O)N1CCC[C@H]1C(=O)N[C@@H](CO)C(=O)N[C@@H](CO)C(=O)N[C@H](C(=O)N[C@@H](CC(N)=O)C(=O)N[C@H](C(=O)NCC(=O)N[C@@H](CO)C(=O)N[C@@H](CC(N)=O)C(=O)N[C@H](C(=O)N1CCC[C@H]1C(N)=O)[C@@H](C)O)C(C)C)[C@@H](C)O [Example 8] ({C20 diacid-γGlu}-KCNTATCATQRLAEFLRHSSPNFGAIPSSTNVGSNTP-NH2; disulfide 2-7)
≥ 200 µM: [1] | [2] | [3] | [4] | [5] | [6] | [7] | [8]

CC[C@H](C)[C@H](NC(=O)[C@H](C)NC(=O)CNC(=O)[C@H](Cc1ccccc1)NC(=O)[C@H](CC(N)=O)NC(=O)[C@@H]1CCCN1C(=O)[C@H](CO)NC(=O)[C@H](CO)NC(=O)[C@H](Cc1c[nH]cn1)NC(=O)[C@H](CCCNC(=N)N)NC(=O)[C@H](CC(C)C)NC(=O)[C@H](Cc1ccccc1)NC(=O)[C@H](CC(=O)O)NC(=O)[C@H](C)NC(=O)[C@H](CC(C)C)NC(=O)[C@H](CCCNC(=N)N)NC(=O)[C@H](CCC(N)=O)NC(=O)[C@@H](NC(=O)[C@H](C)NC(=O)[C@@H]1CSSC[C@H](NC(=O)[C@H](CCCCN)NC(=O)CC[C@H](NC(=O)CCCCCCCCCCCCCCCCCCC(=O)O)C(=O)O)C(=O)N[C@@H](CC(N)=O)C(=O)N[C@@H]([C@@H](C)O)C(=O)N[C@@H](C)C(=O)N[C@@H]([C@@H](C)O)C(=O)N1)[C@@H](C)O)C(=O)N1CCC[C@H]1C(=O)N[C@@H](CO)C(=O)N[C@@H](CO)C(=O)N[C@H](C(=O)N[C@@H](CC(N)=O)C(=O)N[C@H](C(=O)NCC(=O)N[C@@H](CO)C(=O)N[C@@H](CC(N)=O)C(=O)N[C@H](C(=O)N1CCC[C@H]1C(N)=O)[C@@H](C)O)C(C)C)[C@@H](C)O [Example 10] ({C20 diacid-γGlu}-KCNTATCATQRLADFLRHSSPNFGAIPSSTNVGSNTP-NH2; disulfide 2-7 (inferred))
≥ 200 µM: [1] | [2] | [3] | [4] | [5] | [6] | [7] | [8]

CC[C@H](C)[C@H](NC(=O)[C@H](C)NC(=O)CNC(=O)[C@H](Cc1ccccc1)NC(=O)[C@H](CC(N)=O)NC(=O)[C@@H]1CCCN1C(=O)[C@H](CO)NC(=O)[C@H](CO)NC(=O)[C@H](Cc1c[nH]cn1)NC(=O)[C@H](CCCNC(=N)N)NC(=O)[C@H](CC(C)C)NC(=O)[C@H](Cc1ccccc1)NC(=O)[C@H](CCC(=O)O)NC(=O)[C@H](C)NC(=O)[C@H](CC(C)C)NC(=O)[C@H](CCCNC(=N)N)NC(=O)[C@H](CCC(N)=O)NC(=O)[C@@H](NC(=O)[C@H](C)NC(=O)[C@@H]1CSSC[C@H](NC(=O)[C@H](CCCCN)NC(=O)CC[C@H](NC(=O)CCCCCCCCCCCCCCCCCCC(=O)O)C(=O)O)C(=O)N[C@@H](CC(N)=O)C(=O)N[C@@H]([C@@H](C)O)C(=O)N[C@@H](C)C(=O)N[C@@H]([C@@H](C)O)C(=O)N1)[C@@H](C)O)C(=O)N1CCC[C@H]1C(=O)N[C@@H](CO)C(=O)N[C@@H](CO)C(=O)N[C@H](C(=O)N[C@@H](CC(N)=O)C(=O)N[C@H](C(=O)NCC(=O)N[C@@H](CO)C(=O)N[C@@H](CC(=O)O)C(=O)N[C@H](C(=O)N1CCC[C@H]1C(N)=O)[C@@H](C)O)C(C)C)[C@@H](C)O [Example 11] ({C20 diacid-γGlu}-KCNTATCATQRLAEFLRHSSPNFGAIPSSTNVGSDTP-NH2; disulfide 2-7 (inferred))
≥ 200 µM: [1] | [2] | [3] | [4] | [5] | [6] | [7] | [8]

CC[C@H](C)[C@H](NC(=O)[C@H](C)NC(=O)CNC(=O)[C@H](Cc1ccccc1)NC(=O)[C@H](CC(N)=O)NC(=O)[C@@H]1CCCN1C(=O)[C@H](CO)NC(=O)[C@H](CO)NC(=O)[C@H](Cc1c[nH]cn1)NC(=O)[C@H](CCCNC(=N)N)NC(=O)[C@H](CC(C)C)NC(=O)[C@H](Cc1ccccc1)NC(=O)[C@H](CCC(=O)O)NC(=O)[C@H](C)NC(=O)[C@H](CC(C)C)NC(=O)[C@H](CCCNC(=N)N)NC(=O)[C@H](CCC(N)=O)NC(=O)[C@@H](NC(=O)[C@H](C)NC(=O)[C@@H]1CSSC[C@H](NC(=O)[C@H](CCCCN)NC(=O)CC[C@H](NC(=O)CC[C@H](NC(=O)CCCCCCCCCCCCCCCCCCC(=O)O)C(=O)O)C(=O)O)C(=O)N[C@@H](CC(N)=O)C(=O)N[C@@H]([C@@H](C)O)C(=O)N[C@@H](C)C(=O)N[C@@H]([C@@H](C)O)C(=O)N1)[C@@H](C)O)C(=O)N1CCC[C@H]1C(=O)N[C@@H](CO)C(=O)N[C@@H](CO)C(=O)N[C@H](C(=O)N[C@@H](CC(N)=O)C(=O)N[C@H](C(=O)NCC(=O)N[C@@H](CO)C(=O)N[C@@H](CC(N)=O)C(=O)N[C@H](C(=O)N[C@@H](Cc1ccc(O)cc1)C(N)=O)[C@@H](C)O)C(C)C)[C@@H](C)O [Example 15] ({C20 diacid-γGlu-γGlu}-KCNTATCATQRLAEFLRHSSPNFGAIPSSTNVGSNTY-NH2; disulfide 2-7 (inferred))
≥ 200 µM: [1] | [2] | [3] | [4] | [5] | [6] | [7] | [8]
